Source: patent US20060069132A1, “Azolecarboxamide herbicides” (priority 2004, published 2006)

Key:
velvetleaf = assay: Test A pre-/postemergence herbicide test; format: in vivo, Abutilon theophrasti
Summary of the method: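 Seeds sown in sandy loam received a preemergence directed soil spray of compound in non-phytotoxic solvent with surfactant; postemergence plants (2–10 cm, one- to two-leaf stage) were sprayed to runoff at the same time. After ~10 days in greenhouse, injury was rated visually versus untreated controls (0 = no effect, 100 = complete control).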

large crabgrass = assay: Test C pre-/postemergence herbicide test; format: in vivo, Digitaria sanguinalis; conditions: for Crabgrass, Large plant response rating: 500 g ai/ha
Summary of the method: (§1)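 Seeds were planted and sprayed preemergence with test chemicals in a non-phytotoxic solvent mixture containing surfactant; postemergence treatments went onto plants 2 to 18 cm tall (1- to 4-leaf stage). After 12 to 14 days in a greenhouse, injury was rated visually against untreated controls on a 0–100 scale.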

woolly cupgrass = assay: Test C pre-/postemergence herbicide test; format: in vivo, Eriochloa villosa; conditions: for Cupgrass, Woolly plant response rating: 500 g ai/ha
Summary of the method: as §1

giant foxtail = assay: Test C pre-/postemergence herbicide test; format: in vivo, Setaria faberi; conditions: for Foxtail, Giant plant response rating: 500 g ai/ha
Summary of the method: as §1

lambsquarters = assay: Test C pre-/postemergence herbicide test; format: in vivo, Chenopodium album; conditions: for Lambsquarters plant response rating: 500 g ai/ha
Summary of the method: as §1

pigweed = assay: Test C pre-/postemergence herbicide test; format: in vivo, Amaranthus retroflexus; conditions: for Pigweed plant response rating: 500 g ai/ha
Summary of the method: as §1

[1] = system: common (oilseed) sunflower; assay: Test C pre-/postemergence herbicide test; format: in vivo, Helianthus annuus; conditions: for Plant response rating (0 = no effect, 100 = complete control), Sunflower: 62 g ai/ha; for Plant response rating (0 = no effect, 100 = complete control), Sunflower / Plant response rating, Sunflower: preemergence; for Plant response rating, Sunflower: 125 g ai/ha, scale 0 (no effect) to 100 (complete control), visual, 12 to 14 days; for Sunflower plant response rating: Preemergence, 500 g ai/ha, scale 0 to 100, 0 no effect, 100 complete control
Summary of the method: as §1

rice = assay: Test C flooded paddy test; format: in vivo, Oryza sativa; conditions: for Plant response rating, Rice: 500 g ai/ha, visual rating after 12 to 14 days
Summary of the method: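 Plants were grown to the 1- to 4-leaf stage (2–18 cm) and then treated postemergence, or grown to the 2-leaf stage for the flooded paddy test. They were held in a greenhouse for 12 to 14 days and then scored by eye against controls, where 0 is no effect and 100 is complete control.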

[2] = system: smallflower umbrella sedge; assay: Test C flooded paddy test; format: in vivo, Cyperus difformis; conditions: for Plant response rating, Sedge, Umbrella: 500 g ai/ha, visual rating after 12 to 14 days
[3] = Postemergence, 500 g ai/ha, 0 to 100 scale, 0 no effect, 100 complete control
[4] = Postemergence, 2000 g ai/ha, 0 to 100 scale, 0 no effect, 100 complete control
[5] = Preemergence, 500 g ai/ha, visual rating, 0 to 100 scale (0 no effect, 100 complete control)
[6] = Preemergence, 2000 g ai/ha, visual rating, 0 to 100 scale (0 no effect, 100 complete control)
[7] = 125 g ai/ha, scale 0 (no effect) to 100 (complete control), visual, 12 to 14 days, preemergence
[8] = 250 g ai/ha, scale 0 to 100 (0 no effect, 100 complete control), visual, 12 to 14 days, preemergence
[9] = Preemergence, scale 0 to 100, 0 no effect, 100 complete control
[10] = 62 g ai/ha, scale 0 to 100 (0 no effect, 100 complete control)
[11] = 125 g ai/ha, scale of 0 to 100, 0 is no effect, 100 is complete control
[12] = 250 g ai/ha, scale of 0 to 100, 0 is no effect, 100 is complete control
[13] = scale 0 to 100 (0 no effect, 100 complete control)
[14] = Postemergence, 250 g ai/ha, scale 0 to 100, 0 no effect, 100 complete control
[15] = postemergence, 125 g ai/ha, scale 0 to 100
[16] = postemergence, 62 g ai/ha, scale 0 to 100

Compound: CC(=NO)c1cccc(NC(=O)c2cc(C(C)(C)C)nn2C)c1 [Compound 102]
- Velvetleaf plant response rating (velvetleaf; [3]): 10
- Plant response rating, Velvetleaf (velvetleaf; [4]): 20
- Velvetleaf plant response rating (velvetleaf; [5]): 30
- Velvetleaf plant response rating (velvetleaf; [6]): 60
- Plant response rating (0 = no effect, 100 = complete control), Crabgrass, Large (large crabgrass; 62 g ai/ha, preemergence): 100
- Plant response rating, Crabgrass, Large (large crabgrass; [7]): 100
- Plant response rating, Crabgrass, Large (large crabgrass; [8]): 100
- Crabgrass, Large plant response rating (large crabgrass; [9]): 100
- Plant response rating (0 = no effect, 100 = complete control), Cupgrass, Woolly (woolly cupgrass; 62 g ai/ha, preemergence): 0
- Plant response rating, Cupgrass, Woolly (woolly cupgrass; [7]): 10
- Plant response rating, Cupgrass, Woolly (woolly cupgrass; [8]): 20
- Cupgrass, Woolly plant response rating (woolly cupgrass; [9]): 40
- Plant response rating (0 = no effect, 100 = complete control), Foxtail, Giant (giant foxtail; 62 g ai/ha, preemergence): 10
- Plant response rating, Foxtail, Giant (giant foxtail; [7]): 50
- Plant response rating, Foxtail, Giant (giant foxtail; [8]): 80
- Foxtail, Giant plant response rating (giant foxtail; [9]): 80
- Plant response rating (0 = no effect, 100 = complete control), Lambsquarters (lambsquarters; 62 g ai/ha, preemergence): 0
- Plant response rating, Lambsquarters (lambsquarters; [7]): 70
- Lambsquarters plant response rating (lambsquarters; [9]): 100
- Plant response rating (0 = no effect, 100 = complete control), Pigweed (pigweed; 62 g ai/ha, preemergence): 90
- Plant response rating, Pigweed (pigweed; [7]): 100
- Pigweed plant response rating (pigweed; [9]): 100
- Plant response rating (0 = no effect, 100 = complete control), Sunflower [1]: 0
- Plant response rating, Sunflower [1]: 20
- Sunflower plant response rating [1]: 20
- Rice plant response rating (rice; [10]): 20
- Rice plant response rating (rice; [11]): 30
- Rice plant response rating (rice; [12]): 40
- Plant response rating, Rice (rice; [13]): 60
- Sedge, Umbrella plant response rating [2, 10]: 50
- Sedge, Umbrella plant response rating [2, 11]: 70
- Sedge, Umbrella plant response rating [2, 12]: 70
- Plant response rating, Sedge, Umbrella [2, 13]: 80

Compound: CCn1nc(C(C)(C)C)cc1C(=O)Nc1cccc(C(C)=NO)c1 [Compound 108]
- Velvetleaf plant response rating (velvetleaf; [3]): 90
- Plant response rating, Velvetleaf (velvetleaf; [4]): 100
- Velvetleaf plant response rating (velvetleaf; [5]): 55
- Velvetleaf plant response rating (velvetleaf; [6]): 90
- Plant response rating (0 = no effect, 100 = complete control), Crabgrass, Large (large crabgrass; 62 g ai/ha, preemergence): 100
- Plant response rating, Crabgrass, Large (large crabgrass; [7]): 100
- Plant response rating, Crabgrass, Large (large crabgrass; [8]): 100
- Crabgrass, Large plant response rating (large crabgrass; Postemergence, scale 0 to 100): 100
- Plant response rating, Crabgrass, Large (large crabgrass; [14]): 70
- Crabgrass, Large plant response rating (large crabgrass; [9]): 100
- Plant response rating, Crabgrass, Large (large crabgrass; [15]): 70
- Plant response rating, Crabgrass, Large (large crabgrass; [16]): 10
- Plant response rating (0 = no effect, 100 = complete control), Cupgrass, Woolly (woolly cupgrass; 62 g ai/ha, preemergence): 30
- Plant response rating, Cupgrass, Woolly (woolly cupgrass; [7]): 50
- Plant response rating, Cupgrass, Woolly (woolly cupgrass; [8]): 50
- Cupgrass, Woolly plant response rating (woolly cupgrass; Postemergence, scale 0 to 100): 40
- Plant response rating, Cupgrass, Woolly (woolly cupgrass; [14]): 40
- Cupgrass, Woolly plant response rating (woolly cupgrass; [9]): 80
- Plant response rating, Cupgrass, Woolly (woolly cupgrass; [15]): 40
- Plant response rating, Cupgrass, Woolly (woolly cupgrass; [16]): 20
- Plant response rating (0 = no effect, 100 = complete control), Foxtail, Giant (giant foxtail; 62 g ai/ha, preemergence): 100
- Plant response rating, Foxtail, Giant (giant foxtail; [7]): 100
- Plant response rating, Foxtail, Giant (giant foxtail; [8]): 100
- Foxtail, Giant plant response rating (giant foxtail; Postemergence, scale 0 to 100): 70
- Foxtail, Giant plant response rating (giant foxtail; [9]): 100
- Plant response rating, Foxtail, Giant (giant foxtail; [15]): 50
- Plant response rating, Foxtail, Giant (giant foxtail; [16]): 30
- Plant response rating (0 = no effect, 100 = complete control), Lambsquarters (lambsquarters; 62 g ai/ha, preemergence): 100
- Plant response rating, Lambsquarters (lambsquarters; [7]): 100
- Lambsquarters plant response rating (lambsquarters; Postemergence, scale 0 to 100): 100
- Plant response rating, Lambsquarters (lambsquarters; [14]): 100
- Lambsquarters plant response rating (lambsquarters; [9]): 100
- Plant response rating, Lambsquarters (lambsquarters; [15]): 100
- Plant response rating, Lambsquarters (lambsquarters; [16]): 70
- Plant response rating (0 = no effect, 100 = complete control), Pigweed (pigweed; 62 g ai/ha, preemergence): 100
- Plant response rating, Pigweed (pigweed; [7]): 100
- Pigweed plant response rating (pigweed; Postemergence, scale 0 to 100): 100
- Plant response rating, Pigweed (pigweed; [14]): 100
- Pigweed plant response rating (pigweed; [9]): 100
- Plant response rating, Pigweed (pigweed; [15]): 100
- Plant response rating, Pigweed (pigweed; [16]): 60
- Plant response rating (0 = no effect, 100 = complete control), Sunflower [1]: 20
- Plant response rating, Sunflower [1]: 20
- Sunflower plant response rating [1]: 20
- Rice plant response rating (rice; [10]): 0
- Rice plant response rating (rice; [11]): 0
- Rice plant response rating (rice; [12]): 20
- Plant response rating, Rice (rice; [13]): 50
- Sedge, Umbrella plant response rating [2, 10]: 60
- Sedge, Umbrella plant response rating [2, 11]: 80
- Sedge, Umbrella plant response rating [2, 12]: 80
- Plant response rating, Sedge, Umbrella [2, 13]: 80
